From US12678488B2, “Batch management method for improving farrowing rate or number of piglets born alive in swine” (priority 2024, dated 2026)

System: Landrace x Large White reserve sows
Assay: Heat detection: estrus rate and estrus time in gilts, different doses (Example 2)
Format: in vivo, pigs
Source text: Landrace x Large White reserve sows, about 230 days old, were randomly divided into a batch farrowing with FTAI and batch farrowing with FTAI combined with different doses of 1-[bis(4-cyanophenyl)methyl]-1,2,4-triazole groups, and during the experiment, the experimental sows in each group were fed regularly and gained free access to water according to the requirements of feeding management in the farm.
Referring to the dosage of 1-[bis(4-cyanophenyl)methyl]-1,2,4-triazole in clinical medicine and using standard weight-dosage conversion, the recommended dosage of 1-[bis(4-cyanophenyl)methyl]-1,2,4-triazole for sows was 50-150 μg/kg·BW/day, orally for consecutive 5 days, as derived by conversion. In addition, the applicant previously studied uniparous cows, and in the ovulation induction scheme, the reference dosage of 1-[bis(4-cyanophenyl)methyl]-1,2,4-triazole was 60-200 μg/kg·BW, administered in a single dose; furthermore, by means of conversion in conjunction with the dosage for model animals (mice) previously in the laboratory, various dosages were designed. The treatment methods of hormones and drugs for sows in each group were as follows: • batch farrowing with FTAI: the sows were fed with an altrenogest oral solution at 20 mg/animal at the same time every day, for 18 days; PMSG at 1000 IU/animal was injected intramuscularly 42 h after the last feeding with altrenogest, GnRH at 100 μg/animal was injected intramuscularly 80 h after the injection of PMSG, a first timed insemination was performed 24 h after the injection of GnRH, and a second timed insemination was performed 16 h after the first insemination.
Treatment group 1: the hormone treatment and mating schemes for gilts were the same as FTAI. The difference lay in that PMSG at 1000 IU/gilt was injected intramuscularly 42 h after the last feeding with altrenogest, and 1-[bis(4-cyanophenyl)methyl]-1,2,4-triazole at 12 μg/kg·BW/day was administered orally 8 h after the injection of PMSG, for 1 day.
Treatment group 2: the hormone treatment and mating schemes for gilts were the same as FTAI. The difference lay in that PMSG at 1000 IU/gilt was injected intramuscularly 42 h after the last feeding with altrenogest, and 1-[bis(4-cyanophenyl)methyl]-1,2,4-triazole at 12 μg/kg·BW/day was administered orally 8 h after the injection of PMSG, for 2 days.
Treatment group 3: the hormone treatment and mating schemes for gilts were the same as FTAI. The difference lay in that PMSG at 1000 IU/gilt was injected intramuscularly 42 h after the last feeding with altrenogest, and 1-[bis(4-cyanophenyl)methyl]-1,2,4-triazole at 20 μg/kg·BW/day was administered orally 8 h after the injection of PMSG, for 1 day.
Treatment group 4: the hormone treatment and mating schemes for sows were the same as FTAI. The difference lay in that PMSG at 1000 IU/gilt was injected intramuscularly 42 h after the last feeding with altrenogest, and 1-[bis (4-cyanophenyl)methyl]-1,2,4-triazole at 20 μg/kg·BW/day was administered orally 8 h after the injection of PMSG, for 2 days.
Treatment group 5: the hormone treatment and mating schemes for gilts were the same as FTAI. The difference lay in that PMSG at 1000 IU/animal was injected intramuscularly 42 h after the last feeding with altrenogest, and 1-[bis(4-cyanophenyl)methyl]-1,2,4-triazole at 20 μg/kg·BW/day was administered orally 8 h after the injection of PMSG, for 3 days.
Treatment group 6: the hormone treatment and mating schemes for gilts were the same as FTAI. The difference lay in that PMSG at 1000 IU/animal was injected intramuscularly 42 h after the last feeding with altrenogest, and 1-[bis(4-cyanophenyl)methyl]-1,2,4-triazole at 20 μg/kg·BW/day was administered orally 8 h after the injection of PMSG, for 5 days.
Treatment group 7: the hormone treatment and mating schemes for gilts were the same as FTAI. […]

## N#Cc1ccc(C(c2ccc(C#N)cc2)n2cncn2)cc1 [1-[bis(4-cyanophenyl)methyl]-1,2,4-triazole]
Day 5.5, Example 2 Treatment group 5: 20 μg/kg·BW/day orally, 3 days, gilts
  Number of estrous animals at different times after stopping Altrenogest (day/animal): 6 animal
Day 5.5, Example 2 Treatment group 6: 20 μg/kg·BW/day orally, 5 days, gilts
  Number of estrous animals at different times after stopping Altrenogest (day/animal): 0 animal
Day 5.5, Example 2 Treatment group 7: 40 μg/kg·BW/day orally, 1 day, gilts
  Number of estrous animals at different times after stopping Altrenogest (day/animal): 2 animal
Day 5.5, Example 2 Treatment group 8: 40 μg/kg·BW/day orally, 5 days, gilts
  Number of estrous animals at different times after stopping Altrenogest (day/animal): 0 animal
Day 6, Example 2 Treatment group 1: 12 μg/kg·BW/day orally, 1 day, gilts
  Number of estrous animals at different times after stopping Altrenogest (day/animal): 8 animal
Day 6, Example 2 Treatment group 2: 12 μg/kg·BW/day orally, 2 days, gilts
  Number of estrous animals at different times after stopping Altrenogest (day/animal): 7 animal
Day 6, Example 2 Treatment group 3: 20 μg/kg·BW/day orally, 1 day, gilts
  Number of estrous animals at different times after stopping Altrenogest (day/animal): 7 animal
Day 6, Example 2 Treatment group 4: 20 μg/kg·BW/day orally, 2 days, gilts
  Number of estrous animals at different times after stopping Altrenogest (day/animal): 6 animal
Day 6, Example 2 Treatment group 5: 20 μg/kg·BW/day orally, 3 days, gilts
  Number of estrous animals at different times after stopping Altrenogest (day/animal): 7 animal
Day 6, Example 2 Treatment group 6: 20 μg/kg·BW/day orally, 5 days, gilts
  Number of estrous animals at different times after stopping Altrenogest (day/animal): 5 animal
Day 6, Example 2 Treatment group 7: 40 μg/kg·BW/day orally, 1 day, gilts
  Number of estrous animals at different times after stopping Altrenogest (day/animal): 2 animal
Day 6, Example 2 Treatment group 8: 40 μg/kg·BW/day orally, 5 days, gilts
  Number of estrous animals at different times after stopping Altrenogest (day/animal): 2 animal
Day 6.5, Example 2 Treatment group 1: 12 μg/kg·BW/day orally, 1 day, gilts
  Number of estrous animals at different times after stopping Altrenogest (day/animal): 4 animal
Day 6.5, Example 2 Treatment group 2: 12 μg/kg·BW/day orally, 2 days, gilts
  Number of estrous animals at different times after stopping Altrenogest (day/animal): 3 animal
Day 6.5, Example 2 Treatment group 3: 20 μg/kg·BW/day orally, 1 day, gilts
  Number of estrous animals at different times after stopping Altrenogest (day/animal): 5 animal
Day 6.5, Example 2 Treatment group 4: 20 μg/kg·BW/day orally, 2 days, gilts
  Number of estrous animals at different times after stopping Altrenogest (day/animal): 4 animal
Day 6.5, Example 2 Treatment group 5: 20 μg/kg·BW/day orally, 3 days, gilts
  Number of estrous animals at different times after stopping Altrenogest (day/animal): 3 animal
Day 6.5, Example 2 Treatment group 6: 20 μg/kg·BW/day orally, 5 days, gilts
  Number of estrous animals at different times after stopping Altrenogest (day/animal): 3 animal
Day 6.5, Example 2 Treatment group 7: 40 μg/kg·BW/day orally, 1 day, gilts
  Number of estrous animals at different times after stopping Altrenogest (day/animal): 9 animal
Day 6.5, Example 2 Treatment group 8: 40 μg/kg·BW/day orally, 5 days, gilts
  Number of estrous animals at different times after stopping Altrenogest (day/animal): 2 animal
Day 7, Example 2 Treatment group 1: 12 μg/kg·BW/day orally, 1 day, gilts
  Number of estrous animals at different times after stopping Altrenogest (day/animal): 5 animal
Day 7, Example 2 Treatment group 2: 12 μg/kg·BW/day orally, 2 days, gilts
  Number of estrous animals at different times after stopping Altrenogest (day/animal): 3 animal
Day 7, Example 2 Treatment group 3: 20 μg/kg·BW/day orally, 1 day, gilts
  Number of estrous animals at different times after stopping Altrenogest (day/animal): 2 animal
Day 7, Example 2 Treatment group 4: 20 μg/kg·BW/day orally, 2 days, gilts
  Number of estrous animals at different times after stopping Altrenogest (day/animal): 2 animal
Day 7, Example 2 Treatment group 5: 20 μg/kg·BW/day orally, 3 days, gilts
  Number of estrous animals at different times after stopping Altrenogest (day/animal): 3 animal
Day 7, Example 2 Treatment group 6: 20 μg/kg·BW/day orally, 5 days, gilts
  Number of estrous animals at different times after stopping Altrenogest (day/animal): 8 animal
Day 7, Example 2 Treatment group 7: 40 μg/kg·BW/day orally, 1 day, gilts
  Number of estrous animals at different times after stopping Altrenogest (day/animal): 0 animal
Day 7, Example 2 Treatment group 8: 40 μg/kg·BW/day orally, 5 days, gilts
  Number of estrous animals at different times after stopping Altrenogest (day/animal): 0 animal
Day 7.5, Example 2 Treatment group 1: 12 μg/kg·BW/day orally, 1 day, gilts
  Number of estrous animals at different times after stopping Altrenogest (day/animal): 1 animal
Day 7.5, Example 2 Treatment group 2: 12 μg/kg·BW/day orally, 2 days, gilts
  Number of estrous animals at different times after stopping Altrenogest (day/animal): 1 animal
Day 7.5, Example 2 Treatment group 3: 20 μg/kg·BW/day orally, 1 day, gilts
  Number of estrous animals at different times after stopping Altrenogest (day/animal): 1 animal
Day 7.5, Example 2 Treatment group 4: 20 μg/kg·BW/day orally, 2 days, gilts
  Number of estrous animals at different times after stopping Altrenogest (day/animal): 1 animal
Day 7.5, Example 2 Treatment group 5: 20 μg/kg·BW/day orally, 3 days, gilts
  Number of estrous animals at different times after stopping Altrenogest (day/animal): 2 animal
Day 7.5, Example 2 Treatment group 6: 20 μg/kg·BW/day orally, 5 days, gilts
  Number of estrous animals at different times after stopping Altrenogest (day/animal): 1 animal
Day 7.5, Example 2 Treatment group 7: 40 μg/kg·BW/day orally, 1 day, gilts
  Number of estrous animals at different times after stopping Altrenogest (day/animal): 9 animal
Day 7.5, Example 2 Treatment group 8: 40 μg/kg·BW/day orally, 5 days, gilts
  Number of estrous animals at different times after stopping Altrenogest (day/animal): 0 animal
Day 8, Example 2 Treatment group 1: 12 μg/kg·BW/day orally, 1 day, gilts
  Number of estrous animals at different times after stopping Altrenogest (day/animal): 0 animal
Day 8, Example 2 Treatment group 2: 12 μg/kg·BW/day orally, 2 days, gilts
  Number of estrous animals at different times after stopping Altrenogest (day/animal): 0 animal
Day 8, Example 2 Treatment group 3: 20 μg/kg·BW/day orally, 1 day, gilts
  Number of estrous animals at different times after stopping Altrenogest (day/animal): 0 animal
Day 8, Example 2 Treatment group 4: 20 μg/kg·BW/day orally, 2 days, gilts
  Number of estrous animals at different times after stopping Altrenogest (day/animal): 0 animal
Day 8, Example 2 Treatment group 5: 20 μg/kg·BW/day orally, 3 days, gilts
  Number of estrous animals at different times after stopping Altrenogest (day/animal): 1 animal
Day 8, Example 2 Treatment group 6: 20 μg/kg·BW/day orally, 5 days, gilts
  Number of estrous animals at different times after stopping Altrenogest (day/animal): 2 animal
Day 8, Example 2 Treatment group 7: 40 μg/kg·BW/day orally, 1 day, gilts
  Number of estrous animals at different times after stopping Altrenogest (day/animal): 0 animal
Day 8, Example 2 Treatment group 8: 40 μg/kg·BW/day orally, 5 days, gilts
  Number of estrous animals at different times after stopping Altrenogest (day/animal): 0 animal
gilts, 80 and 160 μg/kg·BW/day for 5 consecutive days (treatment groups 9 and 10)
  estrus on the 8th day after altrenogest was stopped: no estrus
gilts, high dose or multiple (5) low doses (treatment groups 6, 8, 9, and 10)
  estrus rate: decreased estrus rate or even no estrus
gilts, low dose (treatment groups 1, 2, 3, 4, 5, and 7), compared with FTAI group
  estrus rate: not significantly different
high-dose
  estrus in sows: inhibited
low-dose, batch farrowing with FTAI
  gilt estrus rate: no significant change
